Source: ChEMBL document CHEMBL1140259, “Isomeric thiazole derivatives as ligands for the neuropeptide Y5 receptor” (Bioorg Med Chem Lett, 2005)

biological target: T1, Neuropeptide Y receptor type 5 (Mus musculus) (UniProt O70342); experiment: Percent inhibition against mouse NPY5 receptor at 1 um
T1 sequence (whole entry): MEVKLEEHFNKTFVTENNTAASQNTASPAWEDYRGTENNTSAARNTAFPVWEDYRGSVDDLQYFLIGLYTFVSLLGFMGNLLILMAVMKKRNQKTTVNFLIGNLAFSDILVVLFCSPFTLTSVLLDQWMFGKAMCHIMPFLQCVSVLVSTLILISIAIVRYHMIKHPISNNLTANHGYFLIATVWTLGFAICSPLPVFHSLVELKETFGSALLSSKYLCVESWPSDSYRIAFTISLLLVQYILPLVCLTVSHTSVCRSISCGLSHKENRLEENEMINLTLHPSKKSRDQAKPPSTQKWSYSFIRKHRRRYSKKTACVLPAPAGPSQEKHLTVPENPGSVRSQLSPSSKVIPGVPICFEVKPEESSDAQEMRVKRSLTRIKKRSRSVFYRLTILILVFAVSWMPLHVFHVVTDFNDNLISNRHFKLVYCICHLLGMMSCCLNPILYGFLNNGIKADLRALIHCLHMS

| Structure (SMILES) | inhibition [%] |
| --- | --- |
| Cc1ccccc1C(=O)c1csc(NCCCNS(=O)(=O)c2ccc(F)cc2)n1 | 16 |
| COc1cccc(S(=O)(=O)NCCCNc2nc(C(=O)c3ccccc3C)cs2)c1 | 12 |

biological target: T2, Neuropeptide Y receptor type 5 (Mus musculus, UniProt O70342); experiment: Inhibitory concentration against mouse NPY5 receptor […]
T2 sequence (O70342 whole entry): T1 sequence (whole entry)

| Structure (SMILES) | IC50 [nM] |
| --- | --- |
| Cc1ccccc1C(=O)c1cnc(NCCCNS(=O)(=O)c2cccs2)s1 | 1 |
| COc1ccc(OC)c(S(=O)(=O)NCCCNc2ncc(C(=O)c3ccccc3C)s2)c1 | 1.6 |
| Cc1ccccc1C(=O)c1csc(NCCCNS(=O)(=O)c2cc(C(F)(F)F)ccc2Cl)n1 | 9 |
| Cc1ccccc1C(=O)c1csc(NCCCNS(=O)(=O)c2cccc(F)c2)n1 | 64 |
| COc1ccc(OC)c(S(=O)(=O)NCCCNc2nc(C(=O)c3ccccc3C)cs2)c1 | 17 |
| Cc1ccccc1C(=O)c1cnc(NCCCNS(=O)(=O)c2cc(C(F)(F)F)ccc2Cl)s1 | 0.85 |
| COc1cccc(S(=O)(=O)NCCCNc2ncc(C(=O)c3ccccc3C)s2)c1 | 11 |
| Cc1ccccc1C(=O)c1cnc(NCCCNS(=O)(=O)c2cccc(F)c2)s1 | 5.5 |
| COc1ccc(C)cc1S(=O)(=O)NCCCNc1ncc(C(=O)c2ccccc2C)s1 | 0.71 |
| Cc1ccccc1C(=O)c1csc(NCCCNS(=O)(=O)c2cccs2)n1 | 11 |
| Cc1ccccc1C(=O)c1cnc(NCCCNS(=O)(=O)c2ccc(F)cc2)s1 | 9900 |
